The results in this text go back to PubChem BioAssay (NCI).

Common to all, as to test: inhibition of tumour cell growth, NCI panel, 48 h
Experiment [1] relates to RXF 393 renal.
In experiment [2] the test system is HCC-2998 colon.
The subject of experiment [3] is OVCAR-5 ovarian.
Experiment [4] concerns SF-295 CNS.
The test system of experiment [5] is PC-3 prostate.
The subject of experiment [6] is SK-MEL-2 melanoma.
Experiment [7] relates to IGROV1 ovarian.
The subject of experiment [8] is MOLT-4 leukemia.
Experiment [9] relates to UO-31 renal.
Experiment [10] concerns NCI-H23 lung.

The structures appear in SMILES notation. Values joined by “and” are separate entries in the source; they are usually repeats but may differ in a detail not shown here. Identical values can stand only once.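 Assay format: 96-well plates, 48-hour exposure. GI50 is the concentration that inhibits growth by half. Definition used: TGI = concentration required for complete inhibition of growth.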

As to `C/C=C(\C)c1cc(=O)c2c(C)cc3c(c2o1)C(=O)c1c(O)c(C2CC(C)(N(C)C)C(OC(C)=O)C(C)O2)cc(C2CC(N(C)C)C(O)C(C)O2)c1C3=O` (configuration not stated), the TGI in experiment [1] is 1.27 µM; in experiment [2], 2.32 µM; in [3], 15.5 µM; in [4], more than 16.9 µM; in experiment [5], 7.83 µM; in [6], 2.87 µM. Further, the TGI in experiment [7] is 6.01 µM; in [8], more than 15.2 µM; in experiment [9], 7.87 µM; in experiment [10], more than 11.9 µM.

With `COC(COC(N)=O)C1=C(N2CC2)C(=O)C(C)=C(N2CC2)C1=O` (configuration not stated), the TGI turned out to be 0.256 µM in experiment [1]; 0.311 µM in [2]; 0.71 µM in [3]; 0.413 µM in [4]; 1.51 µM in experiment [5]; 0.492 µM in experiment [6]. For the same compound, the TGI in experiment [7] is 0.995 µM; in experiment [8], 7.26 µM; in experiment [9] it was 0.0796 µM; in experiment [10], 0.0907 µM.

As to `Cc1nn(CNc2ccccc2C(F)(F)F)c(=S)n1/N=C/c1cccc2cccnc12`, the GI50 was more than 100 µM in experiment [1]; more than 100 µM in [2]; more than 100 µM in experiment [3]; more than 100 µM in experiment [4]; 79.1 µM in experiment [5]; more than 100 µM in experiment [6]. The GI50 is 52.3 µM in [7], 41.6 µM in [8], more than 100 µM in experiment [9] and more than 100 µM in experiment [10]. Besides, the TGI in experiment [1], in [2], in experiment [3], in experiment [4], in experiment [5] and in experiment [6] was more than 100 µM each time. The TGI in [7], in [8], in experiment [9] and in [10] was more than 100 µM each time.

As for `CCc1nc(N)nc(N)c1-c1ccc(Cl)c([N+](=O)[O-])c1`, the TGI in experiment [1] was more than 100 µM; in experiment [2], more than 100 µM; in [3], more than 100 µM; in [4], more than 70.4 µM; in experiment [5], more than 100 µM; in experiment [6], 90.5 µM. For the same compound, the TGI in [7] is more than 100 µM; in [8], more than 65.2 µM; in experiment [9], more than 100 µM; in experiment [10], more than 100 µM.

With `O=C1N[C@@H]2[C@@H](O)[C@@H](O)[C@H](O)C[C@H]2c2cc3c(c(O)c21)OCCO3`, the GI50 in experiment [1] is 0.264 µM; in [2], 0.227 µM; in experiment [3] it was 0.412 µM; in experiment [4], 0.388 µM; in experiment [5] it was 0.293 µM; in [6] it was 0.286 µM. Besides, the GI50 was 0.389 µM in [7], 0.193 µM in experiment [8], 0.294 µM in experiment [9] and 0.238 µM in [10]. In addition, the TGI was found to be 1.11 µM in experiment [1]; 0.765 µM in [2]; 3.28 µM in experiment [3]; 2.65 µM in experiment [4]; 2.54 µM in [5]; 1.06 µM in experiment [6]. In addition, the TGI in experiment [7] is 3.13 µM; in experiment [8] it was 3.16 µM; in [9], 1.72 µM; in experiment [10] it was 0.915 µM.

`C=CN(C(=O)N1CCN(c2cc3c(cc2F)c(=O)c(C(=O)O)cn3C2CC2)CC1)c1nc(-c2ccc(OC)cc2)cs1`: the GI50 was 5.2 µM in [1]; 5.12 µM in experiment [2]; 5.13 µM in experiment [3]; 2.83 µM in experiment [4]; 3.65 µM in experiment [5]; 2.59 µM in experiment [6]. In addition, the GI50 is 3.89 µM in [7], 3.36 µM in experiment [8], 2.1 µM in [9] and 3.48 µM in experiment [10]. Further, the TGI in experiment [1] is 45.1 µM; in experiment [2] it was more than 100 µM; in experiment [3], more than 100 µM; in experiment [4], 8.26 µM; in experiment [5] it was more than 100 µM; in experiment [6] it was 5.21 µM. Further, the TGI in experiment [7] is more than 100 µM; in experiment [8], more than 100 µM; in experiment [9] it was more than 100 µM; in experiment [10], 14.9 µM.

`COC(=O)[C@@H]1c2cc3c(c(O)c2[C@@H](OC2OC(C)C(OC)C(C)(OC)C2OC)C[C@]1(C)O)C(=O)c1c(O)cc2c(c1C3=O)O[C@H]1O[C@]2(C)[C@H](O)[C@@H](N(C)C)[C@@H]1O` (some centres not stated): the TGI is 0.0749 µM and 0.0594 µM in [1]; 0.0305 µM and 0.0223 µM in experiment [2]; 0.254 µM and 1.22 µM in experiment [4]; 0.297 µM in experiment [5]; 0.0134 µM and 0.0177 µM in experiment [6]; 0.65 µM and 4.74 µM in [7]. Moreover, the TGI in experiment [8] was 0.229 µM and 0.0903 µM; in experiment [9], 0.983 µM and 1.17 µM; in experiment [10] it was 0.0399 µM and 0.0694 µM. Also, the values for the GI50 in [3], in [9] and in experiment [10] were 0.0651 µM, 0.21 µM and 0.0141 µM, respectively.

As for `O=c1oc2ccc(I)cc2c(=O)n1-c1ccc(Br)cc1F`, the GI50 in experiment [1] was 1.02 µM; in [2], 2.98 µM; in experiment [3], 3.55 µM; in experiment [4] it was 1.72 µM; in experiment [5], 1.94 µM; in [6] it was 0.385 µM. Moreover, the GI50 in experiment [7] was 0.745 µM; in experiment [8], 1.59 µM; in [9], 0.33 µM; in experiment [10] it was 0.658 µM. Besides, the TGI in [1] was 4.39 µM; in [2], 9.5 µM; in experiment [3] it was more than 100 µM; in [4], 3.41 µM; in experiment [5], 6.89 µM; in experiment [6] it was 2.29 µM. Also, the TGI in experiment [7] came to 13.3 µM; in experiment [8], 5.18 µM; in experiment [9], 2.72 µM; in experiment [10] it was 3.99 µM.

Regarding `COc1cc2c(cc1OC(C)C)[C@H](c1ccc(Cl)cc1)N(c1ccc(N(C)CC3CCC(N4CCN(C)C(=O)C4)CC3)cc1)C(=O)C2` (some centres not stated), the GI50 was 2.66 µM in experiment [1]; 2.59 µM in [2]; 2.66 µM in experiment [3]; 2.16 µM in experiment [4]; 1.98 µM in experiment [5]; 5.87 µM in experiment [6]. For the same compound, the GI50 was 1.16 µM in experiment [7], 0.363 µM in [8], 0.305 µM in experiment [9] and 3.34 µM in experiment [10]. Also, the TGI in experiment [1] stood at 7.92 µM; in experiment [2] it was 7.07 µM; in [3] it was 9.58 µM; in experiment [4] it was 5.46 µM; in experiment [5], 5.51 µM; in experiment [6], 12.1 µM. Moreover, the TGI worked out at 4.13 µM in experiment [7], 5.77 µM in experiment [8], 2.22 µM in [9] and 13.2 µM in experiment [10].
